In patent publication EP4094762A1, “TREATMENT OF NEUROLOGICAL INDICATIONS” (UCL Business Ltd, priority 2021, dated 2022):
Read-outs that look alike come from different tables or passages of the source. Marks after values point to notes of the source that are not given here. Blank lines part the entries; values can stand above or below the compound they belong to.

Tests used:
[1] = In vivo pharmacodynamic EEG study after oral administration; design: species or system Sprague-Dawley rats; conditions: rat, 10mg/kg orally
Description: Study to assess in vivo pharmacodynamic activity of BPTU (S1) in the CNS of rats following oral administration.
Pre-surgery: The animals were allowed a minimum period of 7 days acclimatisation on arrival in the facility.
Surgery: Male Sprague-Dawley rats were anaesthetised with isoflurane (2-5% in Oxygen at 11/min) throughout the procedure. The scalp, neck and right flank were cleared of hair using clippers and cleaned using diluted Hibitane (50% (v/v) in water). A non-steroidal anti-inflammatory agent was administered (Carprofen 5mg/kg, s.c.) and the animals placed on a homeothermic blanket (37 °C) with the head fixed in a stereotaxic frame. Incisions were made in the scalp and neck, as well as in the right flank. Blunt dissection of the abdominal muscle was then made to gain access to the peritoneal cavity. A radio transmitter (HD-S02, Data Sciences International) was implanted with the body of the transmitter placed in the peritoneal cavity and secured to the muscle wall with non-absorbable sutures through the body of the transmitter. The wires of the transmitter were passed through the muscle wall and then sub-dermally using a trochar (16G needle) to the scalp to act as EEG/EMG electrodes. The scalp was cleared of connective tissue and two bore holes were made in the skull with a trepanning drill (fronto-parietal coordinates: Bregma +2mm anterior, midline +1.0mm lateral and Lambda 0mm, +1.5mm lateral). The positive EEG electrode was attached to the anterior bore hole and the negative EEG electrode to the posterior bore hole. Both electrodes were secured in place using a suitable adhesive agent (Cyanoacrylate gel, RS components). A second set of electrodes were sutured into the nuchal muscle to act as EMG electrodes. All incisions were closed using absorbable suture. The animals were allowed to recover in a warm environment and given 5ml of saline s.c. The animals were kept singly in the cage until next day, then pair housed for the duration of post-surgical recovery (min 7 days). During the recovery period, the rats received 5 days of standard post-operative care with no further experimental procedures until the pre-operative body weight was regained. The animals were maintained on a 12/12hr light dark cycle after the surgery.
Testing: On study days, the animals were placed in recording boxes individually and EEG/EMG as well as locomotor activity were recorded for 0.5 h before and 24 h after each dosing. […]
The subsequent EEG/EMG recordings were automatically scored (see Table below for sleep stage definitions) as wake, non-REM (NREM) sleep, or REM sleep in 10 second epochs using SleepSign (Kissei Comtec, Japan).
Power spectral analysis was performed on EEG data recorded over the first 3 h. […]

[2] = CNS penetration: intravenous cassette pharmacokinetic study, brain and plasma by LC-MS/MS; conditions: mouse; for CNS penetrant (asterisk): in vivo; for CNS penetration: total brain to plasma ratio: t = 2 hr, 0.4mg/kg intravenous
Protocol: To assess penetration of compounds into the mouse central nervous system, intravenous pharmacokinetic studies were undertaken in C57B16/J mice. […] Compounds were then combined into a single dosing solution and administered together via the intravenous route into 24 mice. Total compound dose administered to each mouse was 2mg/kg. Mice were culled at various times post dosing and brain and plasma collected for bioanalysis. In particular, mice were culled and plasma collected for bioanalysis at 8 time points out to 24 hours post dosing. Brains were also collected for bioanalysis at various time points to assess CNS penetration. 2 hour and 4 hour brain collection was carried out in all studies. Additional time points were collected in selected studies.
For bioanalysis, compounds were prepared in DMSO and aliquoted together to ensure a final concentration of 1mg/mL per compound in DMSO. Analytical standards were prepared from the initial 1mg/mL stock solution of compound, with a 12-point standard curve range from 0.5ng/mL to 2000ng/mL, with independent quality control tests from 1ng/mL to 1000ng/mL run to validate the standards. All standards and QC samples were matrix matched to eliminate possible suppression. Plasma samples were prepared with a 1:10 dilution in plasma. […] Dose solutions were diluted in a control matrix to a relative concentration that fell on the standard curve. Cold acetonitrile containing internal standard was added to all samples, standards, dose samples and QC samples; samples were then centrifuged for 30 minutes at 4000rpm. After centrifugation, supernatant was transferred to a new 96-well plate, diluted with an equal volume of water and mixed thoroughly before LC-MS analysis.
Supernatents were analysed by LC-MS/MS. From the analysis data a response ratio was obtained using the formula Response Ratio = Test Peak Area/Internal Standard Peak Area. From the standard curve, the test peak area was converted to concentration of test compound.
To establish CNS penetration, the ratio of the concentration of each compound in the plasma samples to the brain samples was assessed.

[3] = molecular target: T1, P2Y1 receptor (Homo sapiens, UniProt P47900); assay: Cell based HTRF assay measuring IP1 accumulation; antagonism of the P2Y1 agonist MRS2365; conditions: rounded to nearest whole number
T1 construct: expressed in transfected cells
Protocol: IC50 values were determined using a cell based assay in stably transfected cells overexpressing the P2Y1 receptor. The assay system is a high throughput […] assay measuring accumulation of the intracellular messenger inositol monophosphate (IP1), generated intracellularly following activation of P2Y1.
P2Y1 overexpressing cells were maintained in T175 flasks. The day before the assay, these cells were split and 20µl cell suspension transferred to each well of white 384-well assay plates at a cell density of 0.5x10^6 cells/mL. Plates were pulse centrifuged, then incubated overnight at 37°C / 5% CO2 prior to assay.
On day of assay, medium was removed from cells and replaced with stimulation buffer. […] Positive control antagonist curves with standard compounds were included on each plate. Plates were incubated with antagonists for 1 hour prior to addition of 5nM of the agonist MRS2365, dispensed using a Bravo liquid handler. Following agonist addition, plates were incubated for 60 minutes prior to assay. Both incubations were carried out at 37°C / 5% CO2.
For the assay, IP1 accumulation was quantified using the IPOne kit according to manufacturer's instructions. In short, a standard curve was prepared for IP1 quantification, and cells lysed using kit lysis buffer. Assay reagents were added to the lysates, and incubated for 1 hour at room temperature without spinning or shaking. Plates were analysed on a BMG Pherastar plate reader, and IP1 signal generated in cells interpolated from the standard curve.

T1 sequence (P47900 whole entry): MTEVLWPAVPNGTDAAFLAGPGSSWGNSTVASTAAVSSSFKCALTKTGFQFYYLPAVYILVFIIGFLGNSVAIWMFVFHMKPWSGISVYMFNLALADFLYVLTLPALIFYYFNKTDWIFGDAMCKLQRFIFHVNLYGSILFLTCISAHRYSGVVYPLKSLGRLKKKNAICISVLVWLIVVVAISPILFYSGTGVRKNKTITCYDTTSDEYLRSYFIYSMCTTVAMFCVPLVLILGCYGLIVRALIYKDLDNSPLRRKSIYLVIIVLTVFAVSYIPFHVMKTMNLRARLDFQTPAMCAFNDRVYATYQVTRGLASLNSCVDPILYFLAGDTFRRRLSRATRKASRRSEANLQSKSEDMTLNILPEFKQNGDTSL

SMILES: CC(C)(C)c1ccccc1Oc1ncccc1NC(=O)Nc1ccc(OC(F)(F)F)cc1 [BPTU, 1-(2-(2-(tert-butyl)phenoxy)pyridin-3-yl)-3-(4-(trifluoromethoxy)phenyl)urea]
EEG power, delta band ([1]; during non-REM sleep): Significant increases
EEG power, theta band ([1]; during non-REM sleep): Significant increases
EEG power, gamma frequency band ([1]; during wake): Significant increases
changes in the EEG power spectrum ([1]; first three hours post dosing): significant changes

SMILES: CC(C)(C)c1ccccc1Oc1ncccc1NC(=O)Nc1ccc(OC(F)(F)F)cc1 [S1 (BPTU), 1-(2-(2-(tert-butyl)phenoxy)pyridin-3-yl)-3-(4-(trifluoromethoxy)phenyl)urea]
CNS penetrant (asterisk) ([2]; C57B16/J, 0.4 mg/kg): S1 (BPTU)*

SMILES: CC1(C)CN(c2ccccc2NC(=O)Nc2ccc(OC(F)(F)F)cc2)c2c(O)ccc(-c3ccc(Cl)cc3)c21 [compound 1, reference compound]
IC50 ([3]; 5nM MRS2365, read-out: IC50): 33 nM
CNS penetration: total brain to plasma ratio [2]: BLLQ^d

SMILES: Cc1ccc(NC(=O)Nc2ccc(OC(F)(F)F)cc2)c(Oc2ccccc2C(C)(C)C)n1 [compound 3, 1-(2-(2-(tert-butyl)phenoxy)-6-methylpyridin-3-yl)-3-(4-(trifluoromethoxy)phenyl)urea, reference compound]
IC50 ([3]; 5nM MRS2365, read-out: IC50): 36 nM
CNS penetration: total brain to plasma ratio [2]: BLLQ^d

The remaining lines, values ahead:

IC50 ([3]; read-out: IC50 IP1): 58 nM
CNS penetrant (asterisk) [2]: S4*
SMILES: O=C(Nc1ccc(OC(F)(F)F)cc1)Nc1cccnc1Oc1ccccc1C1(C(F)(F)F)CC1 [S4, 1-(4-(trifluoromethoxy)phenyl)-3-(2-(2-(1-(trifluoromethyl)cyclopropyl)phenoxy)pyridin-3-yl)urea]

IC50 ([3]; read-out: IC50 IP1): 121 nM
CNS penetrant (asterisk) [2]: S8*
SMILES: CC(C)(C)c1ccccc1Oc1ncccc1NC(=O)Nc1ccc(C(F)(F)F)s1 [S8, 1-(2-(2-(tert-butyl)phenoxy)pyridin-3-yl)-3-(5-(trifluoromethyl)thiophen-2-yl)urea]

IC50 ([3]; read-out: IC50 IP1): 122 nM
CNS penetrant (asterisk) [2]: S9*
SMILES: Cc1c(Oc2ncccc2NC(=O)Nc2ccc(OC(F)(F)F)cc2)cccc1N1CCCCC1 [S9]

IC50 ([3]; read-out: IC50 IP1): 150 nM
CNS penetrant (asterisk) [2]: S11*
SMILES: CC(C)(C)c1ccccc1Oc1cccc(O)c1NC(=O)Nc1ccc(OC(F)(F)F)cc1 [S11, 1-(2-(2-(tert-butyl)phenoxy)-6-hydroxyphenyl)-3-(4-(trifluoromethoxy)phenyl)urea]
